Assay results reported in patent US6750211B2, “Diimino compounds for use as modulators of cell regulation” (Emory University, priority 1999, dated 2004).

Test system: J774A.1 cells
Assay: Suppression of the sphingosine "burst" on change to new medium
Assay type: cell-based, murine
Method: J774A.1 cells (No. TIB 67, a murine macrophage-like transformed cell line) were obtained from the American Type Culture Collection (Rockville, Md.) and grown in DMEM and 10% FBS and sodium bicarbonate (3.7 g/l) in a spinner flask at 37° C. and an atmosphere of 5% CO2. Cells were passaged every two to three days by a 1:4 dilution with fresh medium to a density of approximately 2.5×10^5 cells/ml. Cells were used between passages 3 and 24.
Unless indicated differently, suspended cells were removed from the spinner flask, collected by gentle centrifugation (in a table top centrifuge), resuspended in new medium, added to 60 mm tissue culture dishes at 5 to 7.5×10^5 cells per 2 ml of medium. Under these conditions, the cells adhere to the dish rather than grow in suspension. The cells were incubated at 37° C., 5% CO2, for three days before beginning by removing the conditioned medium and adding fresh medium to initiate the “burst”.
After incubation of the cells, the medium was removed, 0.5 ml of ice-cold methanol added, and the cells scraped from the dishes with a rubber spatula. The plates were scraped again with 0.4 ml of deionized water, followed by 0.4 ml of methanol. Cells and washes were pooled in 13×100 mm test tubes, 200 to 300 pmol of C20-sphinganine added as an internal standard, and the long-chain bases extracted- and analyzed by HPLC (as described by Merrill, A. H., Jr., et al., (1988) Anal. Biochem. 171, 373-381) with C20-sphinganine as an internal standard.

| SMILES | IC50 (Mus musculus, J774.A1, titration with purified fraction III added with DMEM, concentration approximated from TNBS amine estimate, FIG. 9, read-out: apparent concentration for 50% suppression of the sphingosine burst) [µM] | fold more concentrated than conditioned medium (volume to volume comparison of amount needed to suppress the burst) (compared with conditioned medium) | volume giving 50% suppression of the sphingosine burst (purified fraction III (amine concentration about 200 mM) added with DMEM, FIG. 9) [µL] | share of the suppression of the sphingosine burst accounted for by the ammonia concentration of conditioned medium (at most time points, calculated from FIGS. 6A and B, FIG. 7) | suppression of the sphingosine burst (in words) (sphingosine measured after adding medium to J774 cells) |
| --- | --- | --- | --- | --- | --- |
| N=C1NC(=N)C(CCCCN)NC1CCCCN (single isomer, unassigned) [fraction III, 2,6-bis-(ω-aminobutyl)-3,5-diimino-piperazine] | 1000 to 3000 | greater than 200 fold | 30 | – | – |
| N [NH4^+, reference compound] | – | – | – | greater than 50% | shown to suppress the sphingosine burst |
